# Patent US6495525B1, “VLA-4 inhibitor: oMePUPA-V” (Biogen, Inc., priority 1998, dated 2002)
# Key:
# [1] = tested on: Ascaris suum-sensitive sheep; assay: Ovine model of allergic pulmonary inflammation (Ascaris suum allergen challenge); type: in vivo; settings: for EAR (ΔSLR × h): 0-4 h; for LAR (ΔSLR × h): 4-8 h; for PC400 (Post/Pre): carbachol 24 h post-challenge; for early and late airway response, hyperresponsiveness to carbachol (in words): aerosol 2 h before challenge
# Excerpt: Allergic sheep weighing between 27-50 kg were used. […] The sheep were conscious and were restrained in a modified shopping cart in the prone position with their heads immobilized. After topical anesthesia of the nasal passages with 2% lidocaine, a balloon catheter was advanced through one nostril into the lower esophagus. The animals were intubated with a cuffed endotracheal tube through the other nostril using a flexible fiberoptic bronchoscope as a guide. All protocols used in this study were approved by the Mount Sinai Medical Center Animal Research Committee, which is responsible for assuring the humane care and use of experimental animals. Pleural pressure was estimated using an esophageal balloon catheter (filled with 1 mL of air), which was positioned 5 to 10 cm from the gastroesophageal-junction. In this position, the end expiratory pleural pressure ranged between −2 to −5-cmH2O. Once the balloon was placed, it was secured so that it remained in the same position for the duration of the experiment. Lateral pressure in the trachea was measured with a sidehole catheter (inner diameter, 2.5 mm) advanced through and positioned distal to the tip of the endotracheal tube.
# The tracheal and pleural pressure catheters were connected to a differential pressure transducer (MP45, Validyne, Northridge, Calif.) for the measurement of transpulmonary pressure which was defined as the difference between tracheal and pleural pressure. Airflow was measured by connecting the proximal end of the endotracheal tube to a pneumotachograph (Fleisch, Dyna Sciences, Inc., Blue Bell, Pa.). The signals of transpulmonary pressure and flow were recorded on a multichannel physiological recorder which was linked to a 80-386 DOS Personal Computer for on-line calculation of mean pulmonary flow resistance (RL) by dividing the change in transpulmonary pressure by the change in flow at mid-tidal volume (obtained by digital integration). The mean of at least five breaths, free of swallowing artifact, was used to obtain RL in cmH2O/L/sec. Immediately after the measurement of RL, thoracic gas volume (Vtg) was measured in a constant-volume body plethysmograph to obtain specific lung resistance (SRL=RL×Vtg) in L×cmH2O/L/sec.
# All liquid-dose aerosols were generated using a disposable medical air-jet nebulizer (Raindrop®, Puritan Bennett, Lenexa, Kans.) that provided an aerosol with a mass median aerodynamic diameter of 3.2 μm as determined by an Andersen cascade impactor. The nebulizer was connected to a dosimeter system, consisting of a solenoid valve and a source of compressed air (20 psi). The output of the nebulizer was directed into a plastic T-piece, one end of which was connected to the inspiratory port of a piston respirator (Harvard Apparatus, S. Natick, Mass.). The solenoid valve was activated for one second at the beginning of the inspiratory cycle of the respirator. Aerosols were delivered at a tidal volume of 500 mL and a rate of 20 breaths per minute. To assess bronchial responsiveness, cumulative concentration response curves to carbachol were performed by measuring SRL immediately after inhalation of buffer and after each consecutive administration of 10 breaths of increasing concentrations of carbachol (0.25, 0.5, 1.0, 2.0 and 4.0% w/v in buffered saline). The provocation test was discontinued when SRL increased over 400% from the post-saline value or after the highest carbachol concentration had been administered. Bronchial responsiveness was assessed by determining the cumulative carbachol concentration (in breath units) that increased SRL by 400% over the post-saline value (PC400) by interpolation from the dose response curve. One breath unit (BU) was defined as one breath of a 1% w/v carbachol nebulized solution.
# Doses of oMePUPA-V were dissolved in either ethanol:normal saline 1:2, ethanol:200 mM sodium phosphate 1:5 or Tris buffer. When using Tris, any required dilution was performed using normal saline. […]
# [2] = tested on: sRBC-induced DTH model in mice; assay: sRBC-induced delayed type hypersensitivity, footpad swelling; type: in vivo; settings: 20 mg/kg enterally
# Description: Specific pathogen-free female Balb/c mice, aged 8-10 weeks, from Jackson Labs were used for all experiments. The animals were fed food and water ad libitum. Sheep red blood cells (sRBC) in Alsever's solution from the same sheep were obtained weekly from Charles River Pharm. Services (Southbridge, Mass.). The sRBC were pelleted by centrifugation at 1000 g for 10 minutes at 4° C. and any visible buffy coat removed. The cells were then washed in saline. The cell pellet was resuspended in saline and counted using a hemocytometer. The cells were diluted in phosphate buffered saline (PBS) to 2×10^8 sRBC per mL. On Day 0, mice were sensitized by a s.c. injection of 2×10^7 sRBC in 100 μL PBS. On Day 5, sRBC were prepared as above, but diluted in PBS to a final concentration of 4×10^9 sRBC per ml. Of this preparation, 25 μL was injected s.c. into the right rear footpad.
# For enteral administration of compound, oMePUPA-V (Lot #2770-029) was formulated in a vehicle of 60% PEG 400 in 0.02M TRIS to a stock concentration of 5 mg/mL. […]
# Swelling of unchallenged control (left) and challenged (right) rear footpads was measured using a tension caliper from Mitutoyo (Model #304-196, Dyer, Lancaster, Pa.) at 20 hours post-footpad challenge. The data are presented as the change in footpad thickness, determined by subtracting the left hind paw thickness from the right hind paw thickness. […]
# [3] = biological target: VLA-4 (Homo sapiens, UniProt P05556+P13612); assay: VCAM-Ig Competitive Binding Assay on human PBLs; set-up: endogenous in cells; settings: Mn+2
# Excerpt: PBLs, were isolated from peripheral blood of humans, sheep and dogs using methods described for sheep PBL (Abraham, W. M. et al. J. Clin. Invest. 93:776-787, 1994). The VCAM-Ig-AP Competitive Binding Assay was used to compare the binding of oMePUPA-V to these different cell types.
# [4] = 0.01 mg aerosol, EtOH:NS, 2 hours prior to allergen challenge
# [5] = 0.03 mg aerosol, EtOH:NS, 2 hours prior to allergen challenge
# [6] = 0.03 mg once daily for 4 days, EtOH:NS, challenge 24 h after last dose
# [7] = 0.03 mg once daily for 4 days, Tris:NS, challenge 24 h after last dose
# [8] = 0.10 mg aerosol, EtOH:NS, 2 hours prior to allergen challenge
# [9] = 1.00 mg aerosol, EtOH:PBS, 2 hours prior to allergen challenge
# [10] = 3.00 mg aerosol, EtOH:PBS, 2 hours prior to allergen challenge
# Chain of VLA-4 (P13612 34-1032): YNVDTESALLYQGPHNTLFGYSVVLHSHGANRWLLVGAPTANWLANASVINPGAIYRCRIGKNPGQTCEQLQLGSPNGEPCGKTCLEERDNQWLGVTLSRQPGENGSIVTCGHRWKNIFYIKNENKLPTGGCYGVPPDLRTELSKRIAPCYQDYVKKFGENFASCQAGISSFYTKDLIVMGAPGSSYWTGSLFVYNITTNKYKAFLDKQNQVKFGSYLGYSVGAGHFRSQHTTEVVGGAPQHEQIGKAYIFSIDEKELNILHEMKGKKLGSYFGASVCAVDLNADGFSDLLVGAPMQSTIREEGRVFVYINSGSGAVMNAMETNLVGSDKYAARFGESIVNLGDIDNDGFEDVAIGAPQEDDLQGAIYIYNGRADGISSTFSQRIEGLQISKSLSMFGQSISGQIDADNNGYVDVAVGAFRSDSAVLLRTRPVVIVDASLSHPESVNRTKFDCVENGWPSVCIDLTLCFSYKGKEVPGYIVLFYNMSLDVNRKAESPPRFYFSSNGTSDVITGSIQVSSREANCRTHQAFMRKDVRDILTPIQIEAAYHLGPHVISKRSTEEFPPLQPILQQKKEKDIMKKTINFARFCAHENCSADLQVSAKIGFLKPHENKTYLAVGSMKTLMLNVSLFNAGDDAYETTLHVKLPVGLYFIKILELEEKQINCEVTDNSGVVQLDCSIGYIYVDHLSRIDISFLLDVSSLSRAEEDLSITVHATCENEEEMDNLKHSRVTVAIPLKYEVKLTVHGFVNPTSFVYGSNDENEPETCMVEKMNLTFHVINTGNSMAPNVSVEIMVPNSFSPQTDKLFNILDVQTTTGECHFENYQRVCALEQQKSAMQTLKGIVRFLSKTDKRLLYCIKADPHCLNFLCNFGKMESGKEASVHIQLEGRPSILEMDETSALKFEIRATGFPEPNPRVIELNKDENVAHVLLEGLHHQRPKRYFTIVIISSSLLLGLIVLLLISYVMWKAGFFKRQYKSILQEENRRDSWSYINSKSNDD
# Chain of VLA-4 (P05556 21-798): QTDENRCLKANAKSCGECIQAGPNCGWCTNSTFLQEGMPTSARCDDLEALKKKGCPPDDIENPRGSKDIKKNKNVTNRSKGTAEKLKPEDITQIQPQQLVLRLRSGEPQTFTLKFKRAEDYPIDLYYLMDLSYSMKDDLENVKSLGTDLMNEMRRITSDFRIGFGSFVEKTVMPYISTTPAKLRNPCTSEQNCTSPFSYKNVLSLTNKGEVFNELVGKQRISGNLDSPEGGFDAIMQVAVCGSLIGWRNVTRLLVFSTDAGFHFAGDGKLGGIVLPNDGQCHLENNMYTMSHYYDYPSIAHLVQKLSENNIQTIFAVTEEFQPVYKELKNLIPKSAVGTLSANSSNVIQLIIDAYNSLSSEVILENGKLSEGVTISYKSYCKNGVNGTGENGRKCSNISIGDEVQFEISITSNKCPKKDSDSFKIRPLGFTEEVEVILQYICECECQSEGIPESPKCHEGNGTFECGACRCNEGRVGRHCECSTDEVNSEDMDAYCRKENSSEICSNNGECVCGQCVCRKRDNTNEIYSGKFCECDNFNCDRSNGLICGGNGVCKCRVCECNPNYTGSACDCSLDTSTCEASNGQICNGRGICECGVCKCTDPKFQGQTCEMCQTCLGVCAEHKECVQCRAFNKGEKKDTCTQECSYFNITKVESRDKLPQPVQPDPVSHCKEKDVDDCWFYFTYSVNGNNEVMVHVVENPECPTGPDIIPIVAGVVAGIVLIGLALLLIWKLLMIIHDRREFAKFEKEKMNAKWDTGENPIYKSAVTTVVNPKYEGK
structure (smiles),measurement,setting,value
Cc1ccccc1NC(=O)Nc1ccc(CC(=O)N2CCC[C@H]2C(=O)N[C@H](C)CC(=O)O)cc1 [oMePUPA-V],EAR (ΔSLR × h),[1]; [4],6.87 ± 0.05 ΔSLR × h
same,LAR (ΔSLR × h),[1]; [4],5.11 ± 1.46 ΔSLR × h
same,PC400 (Post/Pre),[1]; [4],0.44 ± 0.04
same,EAR (ΔSLR × h),[1]; [5],10.62 ± 3.91 ΔSLR × h
same,LAR (ΔSLR × h),[1]; [5],3.98 ± 0.23 ΔSLR × h
same,PC400 (Post/Pre),[1]; [5],0.43 ± 0.00
same,EAR (ΔSLR × h),[1]; [6],1.53 ± 0.34 ΔSLR × h
same,LAR (ΔSLR × h),[1]; [6],0.59 ± 0.16 ΔSLR × h
same,PC400 (Post/Pre),[1]; [6],1.06 ± 0.04
same,EAR (ΔSLR × h),[1]; [7],1.40 ± 0.35 ΔSLR × h
same,LAR (ΔSLR × h),[1]; [7],0.02 ± 0.06 ΔSLR × h
same,PC400 (Post/Pre),[1]; [7],1.04 ± 0.04
same,"protection against EAR, LAR and hyperresponsiveness (in words)","[1]; 0.03 mg once daily for 4 days, antigen challenge 24 h after the last dose",protective
same,EAR (ΔSLR × h),[1]; [8],2.54 ± 0.74 ΔSLR × h
same,LAR (ΔSLR × h),[1]; [8],0.67 ± 0.17 ΔSLR × h
same,PC400 (Post/Pre),[1]; [8],1.18 ± 0.11
same,EAR (ΔSLR × h),[1]; [9],2.14 ± 0.70 ΔSLR × h
same,LAR (ΔSLR × h),[1]; [9],0.27 ± 0.34 ΔSLR × h
same,PC400 (Post/Pre),[1]; [9],1.05 ± 0.11
same,EAR (ΔSLR × h),[1]; [10],2.47 ± 0.62 ΔSLR × h
same,LAR (ΔSLR × h),[1]; [10],0.68 ± 0.07 ΔSLR × h
same,PC400 (Post/Pre),[1]; [10],1.07 ± 0.08
same,"Minimum effective dose in sheep model, repeat-dose","[1]; daily for 4 days, antigen challenge 24 hours after the last dose",1 µg/kg
same,"early and late airway response, hyperresponsiveness to carbachol (in words)",[1]; doses of 0.01 and 0.03 mg,did not inhibit early or late airway response
same,"early and late airway response, hyperresponsiveness to carbachol (in words)","[1]; doses of 0.1, 1 and 3 mg",inhibited the early airway response and maximally inhibited the late airway response
same,"Minimum effective dose in sheep model, single dose",[1]; single nebulized dose 2 hours before antigen challenge,3 µg/kg
same,effect on footpad swelling (in words),[2],without effect
same,IC50,[3],6 ± 1 nM
